Measurements: patent US8999953B2, “Cyclodextrin nanotechnology for ophthalmic drug delivery” (Oculis EHF, priority 2005, dated 2015)
Values after ≈ are worked out from the molar mass of the structure shown. Where a name gives a salt, the structure may show the parent alone.

Tests used:
physchem = conditions: aqueous cyclodextrin solution, 22.5 °C, aqueous with cosolvent or surfactant or cyclodextrin, thermodynamic from solid
[1] = Eye drop formulation properties (osmolarity, viscosity, dissolved dexamethasone); assay type: physicochemical; conditions: aqueous eye drop suspension with γ-cyclodextrin, aqueous with cosolvent or surfactant or cyclodextrin, thermodynamic from solid; eye drop formulation of EXPERIMENT 4
[2] = Phase-solubility study of dexamethasone with RMβCD or γCD; assay type: physicochemical; conditions: for Phase-solubility diagram type: room temperature
Experimental: Phase-solubility study was performed to determine the exact amount of RMβCD needed to solubilize dexamethasone in the eye drop medium. An excess amount of dexamethasone was added to aqueous solution containing from 0 to 25% (w/v) RMβCD, benzalkonium chloride (0.02% w/v), EDTA (0.1% w/v), NaCl (0.00 to 0.72% w/v) and HPMC (0.1%). […] The suspensions were allowed to cool to room temperature (22-23° C.) and equilibrate for 7 days. After equilibrium was attained, the suspension was filtered through a 0.45 μm membrane filter, diluted and analyzed by HPLC. […] The phase-solubility was determined to be of AL-type and thus dexamethasone appears to form 1:1 dexamethasone/RMβCD complex in the aqueous eye drop formulation.
Phase-solubility study was performed to determine the exact amount of γCD needed to solubilize dexamethasone. An excess amount of dexamethasone was added to aqueous solution or suspension containing from 0 to 10% (w/v) γCD. […] The suspensions were allowed to cool to room temperature (22-23° C.) and equilibrate for 7 days. After equilibrium was attained, the suspension was filtered through a 0.45 μm membrane filter, and the filtrate diluted and analyzed by HPLC.

[3] = Solubility of drugs in pure aqueous cyclodextrin solutions at room temperature (Experiment 6); conditions: 22-23° C.
rabbit eye = assay: Ocular irritation in rabbits following powder administration; assay type: in vivo; conditions: for Bulbar redness (points) / Discharge (points): drug eye, pure powder, median (range), 0-3 points
Experimental: Timolol maleate powder was administered to one eye of each rabbit and the other eye was used as control. Both pure timolol maleate powder and freeze-dried with PVP-polymer (2.4% of mass) were tested in 1.0 mg (n=3) and 0.1 mg (n=6) doses. Additionally, four rabbits received 0.1 mg of the pure powder 3 times a day for 8 days. Redness of bulbar conjunctivae and the amount of discharge were rated from photographs (0-3 points, randomized and masked evaluation). Slitlamp examination was also performed. Hematoxylin-eosin (H&E) stained sections of eyes were examined with a light microscope following the 8 days experiment.

C[C@@H]1C[C@H]2[C@@H]3CCC4=CC(=O)C=C[C@]4(C)[C@@]3(F)[C@@H](O)C[C@]2(C)[C@@]1(O)C(=O)CO [Dexamethasone]
solubility (physchem): 3000 µg/mL (≈ 7.64 mM)
solubility at 7 days [1]: 700 to 900 µg/mL (≈ 1.78 to 2.29 mM)
Phase-solubility diagram type ([2]; aqueous RMβCD (0-25% w/v) eye drop solutions): AL-type
solubility at 7 days ([2]; aqueous γ-cyclodextrin solution/suspension, 22.5 °C, aqueous with cosolvent or surfactant or cyclodextrin, thermodynamic from solid, pure water containing γ-cyclodextrin, at 5% (w/v) γCD concentration, read-out: Maximum dexamethasone solubility): 5300 µg/mL (≈ 13.5 mM)
Phase-solubility diagram type ([2]; γCD 0 to 10% (w/v) in pure water): BS-type

CC1(C)O[C@@H]2C[C@H]3[C@@H]4CCC5=CC(=O)C=C[C@]5(C)[C@@]4(F)[C@@H](O)C[C@]3(C)[C@]2(C(=O)CO)O1 [Triamcinolone acetonide]
solubility (physchem): 1100 µg/mL (≈ 2.53 mM)
Drug solubility in aqueous randomly methylated β-cyclodextrin ([3]; Randomly methylated β-cyclodextrin 5% w/v): 2000 µg/mL
Drug solubility in aqueous γ-cyclodextrin ([3]; γ-cyclodextrin 5% w/v): 4400 µg/mL

CC(C)(C)NC[C@H](O)COc1nsnc1N1CCOCC1 [Timolol maleate powder, Timolol maleate]
Ocular irritation (rabbit eye; 0.1 mg): negligible ocular irritation
Slitlamp examination, surface photographs and histology, drug versus control eyes (rabbit eye; 0.1 mg 3 times a day for 8 days): negligible difference between drug and control eyes
Signs of irritation (rabbit eye; 1.0 mg and 0.1 mg doses): No serious or irreversible signs of irritation
Bulbar redness (points) (rabbit eye; 0.1 mg × 24 (8 days, n = 4)): 0.8 (0.0-1.5) points
Discharge (points) (rabbit eye; 0.1 mg × 24 (8 days, n = 4)): 0.0 (0.0-0.5) points
Bulbar redness (points) (rabbit eye; 1 hr. after 0.1 mg (n = 6)): 1.5 (1.0-2.0) points
Discharge (points) (rabbit eye; 1 hr. after 0.1 mg (n = 6)): 0.0 (0.0-1.5) points
Bulbar redness (points) (rabbit eye; 1 hr. after 1.0 mg (n = 3)): 1.0 (1.0-1.5) points
Discharge (points) (rabbit eye; 1 hr. after 1.0 mg (n = 3)): 1.0 (0.0-2.0) points
Bulbar redness (points) (rabbit eye; 24 hr. after 0.1 mg (n = 6)): 1.0 (0.0-2.0) points
Discharge (points) (rabbit eye; 24 hr. after 0.1 mg (n = 6)): 0.0 (0.0-0.0) points
Bulbar redness (points) (rabbit eye; 24 hr. after 1.0 mg (n = 3)): 1.0 (1.0-1.0) points
Discharge (points) (rabbit eye; 24 hr. after 1.0 mg (n = 3)): 0.3 (0.0-0.8) points
